{"source": "patent US11786507B2", "about": "“Methods of treating HIV-associated neurological disorders (HAND)” (priority 2020, dated 2023)", "key": {"iTat mice": {"system": "iTat mice", "experiment": "Western blotting of SYP, PSD-95, GFAP, Iba-1 in cortex and hippocampus", "type": "in vivo, mouse", "text": "(§1) Doxycycline (Dox)-inducible and astrocyte-specific HIV-1 Tat-transgenic mice (iTat) were generated as previously described.^38 Wild-type (Wt, C57BL/6) and α7 nAChR knockout mice (α7^−/−, B6.129S7-Chrna^7tm1Ba/J) were purchased from the Jackson Laboratory (Bar Harbor, ME). All the animal procedures were approved by the Institutional Animal Care and Use Committee. Mice were housed with a 12-hour light and 12-hour dark photoperiod and provided water and food ad libitum. α7^−/− iTat mice were generated by cross breeding iTat mice with α7^−/− mice. α7^−/− genotyping was slightly modified with the JumpStart™ Taq DNA Polymerase-based PCR (JumpStart™ Taq DNA Polymerase, Sigma, catalog #D9307). […] Mice of 10-14 weeks old with body weights of 20-35 grams were fed with Dox-containing diet (0.625 g/kg, Envigo, catalog #TD.01306) as stated.\nA RIPA buffer (50 mM Tris.HCl, pH 8.0, 280 mM NaCl, 0.5% NP-40, 1% C24H39NaO4, 0.2 mM EDTA, 2 mM EGTA and 10% glycerol) supplemented with protease inhibitors (Millipore-Sigma, catalog #S8830) and phosphatase inhibitors (Millipore-Sigma, catalog #4906845001) was used to lyse the brain tissues and cultured cells with brief sonication on ice. Protein concentrations of the lysates were determined using a Bio-Rad DC protein assay kit (Bio-Rad, catalog #5000111). Lysates were denatured in the SDS-PAGE loading buffer at 100° C. for 10 min, then electrophoretically separated by 8-15% SDS-PAGE, blotted onto 0.45 μm polyvinylidene fluoride membrane (GE Healthcare Life Sciences, catalog #10600023), and probed using appropriate antibodies against PSD-95 (Abcam, catalog #ab18258, and 1:2000 dilution), SYP (Abcam, catalog #ab8049, and 1:1000 dilution), Iba-1 (Wako, catalog #016-20001, and 1:500 dilution) and GFAP (DAKO, catalog #z330s, and 1:2000 dilution), p-p38 (Santa Cruz, catalog #sc-166182, and 1:1000 dilution), p38 (Santa cruz, catalog #sc-535, and 1:1000 dilution), p-JNK (Santa cruz, catalog #sc-6254, and 1:1000 dilution), JNK (Santa cruz, catalog #sc-571, and 1:1000 dilution), p-ERK (Santa cruz, catalog #sc-7383, and 1:1000 dilution), and ERK (Santa cruz, catalog #sc-514302, and 1:1000 dilution), α7 nAChR (Alomone, catalog #ANC-007, and 1:1000 dilution) and β-actin (Sigma-Aldrich, catalog #A1978, and 1:2000 dilution). A Bio-Rad ChemicDoc imaging system (Bio-Rad) and Image J were used for image capturing and analysis, respectively. […]"}, "[1]": {"system": "microglia in CORT of Wt and iTat mice", "experiment": "Iba-1 immunohistochemistry (DAB), microglia morphology in CORT", "type": "in vivo, mouse", "details": "PAM-treated iTat mice", "method": "Mice were anesthetized using avertin (tribromoethanol) and transcardially perfused with first phosphate-buffered saline (PBS) and then 4% paraformaldehyde (PFA). Then, the brains were dissected out, fixed in 4% PFA at 4° C. overnight, dehydrated in 30% sucrose, embedded in OCT, sagittally sectioned (20 μm) using a cryostat, and preserved in a cryoprotectant containing 30% ethylene glycol, 30% glycerol, and 40% PBS. For staining, floating sections were permeabilized in 0.1% triton X-100 in PBS (PBST), blocked by 1% BSA in PBST, probed by Iba-1 antibody (Wako, catalog #019-19741, and 1:800 dilution), inactivated endogenous peroxidases in 1% hydrogen peroxide, probed again by a goat anti-rabbit secondary antibody (Southern Biotech, catalog #4030-05, and 1:200 dilution), and developed using a DAB kit (Abeam, catalog #ab103723). All images were taken using a Nikon Eclipse E800 microscope with a 20× objective and analyzed by the Cellprofiler program. Every section was averaged from three brain regions prefrontal, occipital and parietal cortex, and the average of the three sections was used to represent individual animals.\nTo further determine the relationship between microglia activation, Tat neurotoxicity, and PAM/α7 nAChR, immunohistochemistry staining was performed on microglia in CORT of Wt and iTat mice treated with and without PAM (FIG. 1). […]"}, "α7−/−iTat mice": {"system": "α7−/−iTat mice", "experiment": "PAM neuroprotection in α7 nAChR knockout iTat mice", "details": "mouse, in vivo", "text": "as §1\nOpen Field Test (OPT) and Morris Water Maze (MWZ) were performed sequentially using a computerized video tracking system (Anymaze, Stoelting) to determine the spontaneous locomotor activity and spatial learning and memory, respectively. For OPT, each mouse was allowed to move freely around a clear acrylic chamber (40.5×40.5×30.5 cm) for 10 minutes. Travel distance and maximum speed was determined by the AnyMaze software. […]"}, "[2]": {"details": "CORT, PAM 15 mg/kg/day s.c. vs DMSO"}}, "note": "“Also recorded” adds a separate entry of the source."}
{"compound": "COc1cc(OC)c(NC(=O)Nc2cc(C)on2)cc1Cl", "note": "[PAM, 1-(5-chloro-2,4-dimethoxy-phenyl)-3-(5-methyl-isoxazol-3-yl)-urea]", "values": [{"measurement": "GFAP expression", "setting": "iTat mice; [2]", "result": "completely reversed the increases; also recorded: decreased GFAP in iTat mice"}, {"measurement": "Iba-1 expression", "setting": "iTat mice; [2]", "result": "decreased Iba-1 in both Wt and iTat mice"}, {"measurement": "PSD-95 expression", "setting": "iTat mice; [2]", "result": "significant increases of PSD-95 in Wt mice and even more in iTat mice"}, {"measurement": "SYP expression", "setting": "iTat mice; [2]", "result": "no changes"}, {"measurement": "SYP and GFAP expression", "setting": "iTat mice; HIP, DMSO- vs PAM-treated mice", "result": "no differences of SYP and GFAP"}, {"measurement": "PSD-95 expression", "setting": "iTat mice; HIP, PAM 15 mg/kg/day s.c. vs DMSO", "result": "increased PSD-95 in both Wt and iTat mice"}, {"measurement": "Number of microglia branches and endpoints", "setting": "[1]", "result": "fewer branches and endpoints than PAM-treated Wt mice and DMSO-treated iTat mice"}, {"measurement": "Neuroprotective effects against locomotor, learning and memory deficits", "setting": "α7−/−iTat mice", "result": "abolished"}]}
